Laboratory results as given in PubChem BioAssay AID1378 (University of Pittsburgh Molecular Library Screening Center, 2008).
Active and inactive are the calls of the source. No rule for the calls is given here.

Target: RAC-alpha serine/threonine-protein kinase (Homo sapiens) (UniProt P31749)
Assay: off-target activity on human AKT1 kinase – biochemical, 57K library, IC50, selectivity assay for PKD inhibitor project, dose response (AID 1378)

Sequence of RAC-alpha serine/threonine-protein kinase (Homo sapiens) (P31749 whole entry, looked up): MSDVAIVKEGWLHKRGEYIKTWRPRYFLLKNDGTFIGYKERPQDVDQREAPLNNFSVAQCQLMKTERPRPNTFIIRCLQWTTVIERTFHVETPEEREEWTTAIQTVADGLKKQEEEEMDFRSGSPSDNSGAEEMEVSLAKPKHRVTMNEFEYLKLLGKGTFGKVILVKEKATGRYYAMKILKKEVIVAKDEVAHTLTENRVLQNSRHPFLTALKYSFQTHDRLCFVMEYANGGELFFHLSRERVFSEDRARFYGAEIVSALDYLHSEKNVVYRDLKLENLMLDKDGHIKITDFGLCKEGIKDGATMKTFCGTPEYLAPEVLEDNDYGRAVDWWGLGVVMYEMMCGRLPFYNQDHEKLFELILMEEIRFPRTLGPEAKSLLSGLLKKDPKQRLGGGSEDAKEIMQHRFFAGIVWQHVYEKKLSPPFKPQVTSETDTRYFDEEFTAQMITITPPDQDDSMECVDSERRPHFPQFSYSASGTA

C/C(=N\Nc1ncc(Cl)cc1Cl)c1ccccn1
IC50: > 100 µM (inactive)
